Test results as given in the NIST ThermoML archive (doi:10.1016/j.jct.2008.09.002).

Legend:
[1] = xn = mol fraction of the nth substance listed; conditions: 101.3 kPa, Liquid, Vibrating tube method
[2] = molar heat capacity at constant pressure; xn = mol fraction of the nth substance listed; conditions: 101.3 kPa, Liquid, Small sample (50 mg) DSC

CCCCn1cc[n+](C)c1.COS(=O)(=O)[O-] [1-butyl-3-methylimidazolium methyl sulfate] + C[N+](=O)[O-]
Conditions	mass density, [1] [kg/m3]	molar heat capacity at constant pressure, [2] [J/K/mol]
293.15 K, x1 = 0.0522	1158.1	122.1
293.15 K, x1 = 0.1	1168.5	136.5
293.15 K, x1 = 0.1966	1182.1	166.4
293.15 K, x1 = 0.3059	1191.3	200.5
293.15 K, x1 = 0.4061	1196.9	231.4
293.15 K, x1 = 0.5025	1200.8	261.5
293.15 K, x1 = 0.5889	1203.5	288
293.15 K, x1 = 0.6844	1205.9	317.2
293.15 K, x1 = 0.7832	1207.8	347.4
293.15 K, x1 = 0.8654	1209.1	372.6
293.15 K, x1 = 0.9289	1210	392.1
298.15 K, x1 = 0.0522	1152.1	122.4
298.15 K, x1 = 0.1	1163	137
298.15 K, x1 = 0.1966	1177.3	167
298.15 K, x1 = 0.3059	1186.9	201.3
298.15 K, x1 = 0.4061	1192.8	232.5
298.15 K, x1 = 0.5025	1196.9	262.7
298.15 K, x1 = 0.5889	1199.8	289.4
298.15 K, x1 = 0.6844	1202.2	318.9
298.15 K, x1 = 0.7832	1204.3	349.2
298.15 K, x1 = 0.8654	1205.7	374.6
298.15 K, x1 = 0.9289	1206.7	394.3
303.15 K, x1 = 0.0522	1146.1	122.8
303.15 K, x1 = 0.1	1157.5	137.5
303.15 K, x1 = 0.1966	1172.4	167.7
303.15 K, x1 = 0.3059	1182.6	202.3
303.15 K, x1 = 0.4061	1188.7	233.6
303.15 K, x1 = 0.5025	1193	263.9
303.15 K, x1 = 0.5889	1196	290.9
303.15 K, x1 = 0.6844	1198.6	320.6
303.15 K, x1 = 0.7832	1200.8	351.1
303.15 K, x1 = 0.8654	1202.3	376.7
303.15 K, x1 = 0.9289	1203.3	396.5
308.15 K, x1 = 0.0522	1140.1	123.3
308.15 K, x1 = 0.1	1152	138.1
308.15 K, x1 = 0.1966	1167.6	168.4
308.15 K, x1 = 0.3059	1178.2	203.2
308.15 K, x1 = 0.4061	1184.7	234.8
308.15 K, x1 = 0.5025	1189.2	265.1
308.15 K, x1 = 0.5889	1192.3	292.4
308.15 K, x1 = 0.6844	1195	322.2
308.15 K, x1 = 0.7832	1197.4	352.9
308.15 K, x1 = 0.8654	1199	378.7
308.15 K, x1 = 0.9289	1200	398.7
313.15 K, x1 = 0.0522	1134.1	123.8
313.15 K, x1 = 0.1	1146.5	138.7
313.15 K, x1 = 0.1966	1162.8	169.1
313.15 K, x1 = 0.3059	1173.9	204.1
313.15 K, x1 = 0.4061	1180.6	235.9
313.15 K, x1 = 0.5025	1185.3	266.3
313.15 K, x1 = 0.5889	1188.6	293.8
313.15 K, x1 = 0.6844	1191.5	323.9
313.15 K, x1 = 0.7832	1193.9	354.7
313.15 K, x1 = 0.8654	1195.6	380.8
313.15 K, x1 = 0.9289	1196.6	400.8
318.15 K, x1 = 0.0522	1128.1	124.2
318.15 K, x1 = 0.1	1141	139.1
318.15 K, x1 = 0.1966	1158	169.7
318.15 K, x1 = 0.3059	1169.5	205
318.15 K, x1 = 0.4061	1176.6	237
318.15 K, x1 = 0.5025	1181.5	267.4
318.15 K, x1 = 0.5889	1184.9	295.3
318.15 K, x1 = 0.6844	1187.9	325.6
318.15 K, x1 = 0.7832	1190.4	356.5
318.15 K, x1 = 0.8654	1192.2	382.8
318.15 K, x1 = 0.9289	1193.3	403
